The values that follow come from the supplement of paper PMC4862054.

Values joined by “and” are separate entries in the source; they are usually repeats but may differ in a detail not shown here. Identical values can stand only once.

What all share (details): incubation time: 72 h
Assay [1] concerns SK-BR-3. Nature of the assay: drug sensitivity score (DSS), CellTiter-Glo (DSS (AUC-based score)); higher = stronger drug effect (viability inhibition or cytotoxicity); extreme values may be limits of the assay. The gist of the method:
(§1)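 Breast cancer cell lines were seeded in 20 µl suspension into 384-well plates already holding compound and incubated for 72 h. Each compound was tested at 5 concentrations in 10-fold steps across its own 10,000-fold range. Plates were normalised to 0.1 % DMSO and a positive kill control after CellTox Green and then CellTiter-Glo readings. The area under the fitted dose-response curve served as the basis for the drug sensitivity score.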

The test system of assay [2] is MDA-MB-231. The assay is described as above. A digest of the protocol:
as §1

Assay [3] deals with BT-549. Described as above. A digest of the protocol: as §1
The test system of assay [4] is HCC1937. The assay is described as above. The gist of the method: as §1
The test system of the next assay is Hs578T. Nature of the assay: normalised viability (% of control), CellTiter-Blue; higher = more viable cells (about 100 = DMSO control). As to the method: (§2)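 DSRT, CellTiter-Blue viability, 72 h incubation. Signal is normalised to DMSO and benzethonium chloride controls. Value is the normalised response at dose 3.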
In another assay the test system is CAL-120. The description is as above. On the procedure:
as §2

The next assay deals with MDA-MB-468. The description is as above. As to the method: as §2
In another assay the test system is CAL-85-1. The description is as above. On the procedure: as §2
Assay [5] concerns SK-BR-3. Described as above. As to the method: as §2
The next assay concerns BT-474. The description is as above. As to the method: as §2
Assay [6] concerns MDA-MB-231. The assay is described as above. As to the method: as §2
The next assay relates to HDQ-P1. The description is as above. As to the method: as §2
Assay [7] relates to BT-549. Described as above. As to the method:
as §2

In another assay the test system is CAL-51. Described as above. On the procedure:
as §2

Another assay deals with MDA-MB-453. The assay is described as above. On the procedure: as §2
The test system of a further assay is HCC1143. The description is as above. As to the method: as §2
The next assay deals with MFM-223. The description is as above. On the procedure:
as §2

The next assay deals with CAL-148. The description is as above. As to the method:
as §2

Assay [8] relates to HCC1937. Described as above. As to the method: as §2
Another assay has as its system MDA-MB-436. The description is as above. On the procedure:
as §2

The test system of a further assay is DU-4475. The assay is described as above. As to the method:
as §2

A further assay relates to HCC1599. The description is as above. On the procedure: as §2

Turning to `Nc1nccc(-c2c(-c3ccc(F)cc3)ncn2C2CCCCC2)n1`, the drug sensitivity score in the assay on SK-BR-3 [1], in the assay with MDA-MB-231 [2], with BT-549 [3] and with HCC1937 [4] was 0 throughout.

For `C[C@@H]1CCN(C(=O)CC#N)C[C@@H]1N(C)c1ncnc2[nH]ccc12` [Tofacitinib], the drug sensitivity score with SK-BR-3 [1], in the assay with MDA-MB-231 [2], in the assay with BT-549 [3] and with HCC1937 [4] was 0 throughout.

Regarding `CC(C)C[C@H](NC(=O)[C@H](Cc1ccccc1)NC(=O)c1cnccn1)B(O)O` [Bortezomib], the drug sensitivity score is 26.4 in the assay with SK-BR-3 [1], 22.4 with MDA-MB-231 [2], 28.8 in the assay on BT-549 [3] and 12.9 in the assay on HCC1937 [4]. Moreover, the normalised viability was found to be 87.6% with Hs578T (10 nM); 27.3% in the assay with CAL-120 (10 nM); 12% with MDA-MB-468 (10 nM); 106% in the assay on CAL-85-1 (1 nM); 22.4% in the assay on SK-BR-3 [5] (10 nM); 50.8% with BT-474 (10 nM). In addition, the normalised viability in the assay on MDA-MB-231 [6] (10 nM) turned out to be 16.2%; with HDQ-P1 (1 nM), 83.8%; with BT-549 [7] (10 nM), 39.5%; in the assay with CAL-51 (1 nM), 99.9%; with MDA-MB-453 (1 nM) it was 105%; in the assay with HCC1143 (10 nM), 52.1%. For the same molecule, the normalised viability in the assay on MFM-223 (10 nM) amounted to 38.1%; in the assay with CAL-148 (1 nM), 91.2%; with HCC1937 [8] (10 nM), 19.6%; in the assay with MDA-MB-436 (10 nM), 98.9%; in the assay with DU-4475 (1 nM), 120%; in the assay on HCC1599 (10 nM) it was 110%.

Turning to `COc1cccc2c1C(=O)c1c(O)c3c(c(O)c1C2=O)C[C@@](O)(C(C)=O)C[C@@H]3O[C@H]1C[C@H](N)[C@H](O)[C@H](C)O1` [Daunorubicin], the drug sensitivity score was 6.15 in the assay on SK-BR-3 [1], 6.97 in the assay with MDA-MB-231 [2], 9.34 in the assay with BT-549 [3] and 2.19 in the assay with HCC1937 [4]. Also, the normalised viability in the assay on Hs578T (10 nM) was 85.9%; in the assay on CAL-120 (10 nM), 79%; in the assay with MDA-MB-468 (10 nM), 99.8%; in the assay on CAL-85-1 (1 nM) it was 102%; in the assay with SK-BR-3 [5] (10 nM), 87.3%; in the assay with BT-474 (10 nM), 115%. Also, the normalised viability came to 85.2% with MDA-MB-231 [6] (10 nM); 153% in the assay with HDQ-P1 (1 nM); 95.1% in the assay on BT-549 [7] (10 nM); 99.8% in the assay with CAL-51 (1 nM); 103% in the assay on MDA-MB-453 (1 nM); 79.2% in the assay with HCC1143 (10 nM). The normalised viability was determined as 90.9% with MFM-223 (10 nM); 103% in the assay with CAL-148 (1 nM); 77.9% in the assay on HCC1937 [8] (10 nM); 92.1% in the assay with MDA-MB-436 (10 nM); 95.8% in the assay on DU-4475 (1 nM); 104% with HCC1599 (10 nM).

On to `Cn1c(=O)c(F)c(Nc2ccc(I)cc2F)c2c(=O)n(C[C@@H](O)CO)cnc21` [TAK-733], for which the drug sensitivity score in the assay with SK-BR-3 [1] worked out at 0; with MDA-MB-231 [2] it was 3.88; in the assay with BT-549 [3] it was 0.999; with HCC1937 [4] it was 3. Further, the normalised viability in the assay on Hs578T (10 nM) is 86.8%; with CAL-120 (10 nM), 92.7%; with MDA-MB-468 (10 nM), 91.5%; in the assay with CAL-85-1 (1 nM), 107%; in the assay on SK-BR-3 [5] (10 nM) it was 99.4%; with BT-474 (10 nM) it was 123%. For the same molecule, the normalised viability turned out to be 54.9% in the assay with MDA-MB-231 [6] (10 nM); 118% in the assay with HDQ-P1 (1 nM); 97.4% in the assay on BT-549 [7] (10 nM); 103% in the assay with CAL-51 (1 nM); 123% with MDA-MB-453 (1 nM); 77% with HCC1143 (10 nM). For the same molecule, the normalised viability in the assay with MFM-223 (10 nM) stood at 80.3%; with CAL-148 (1 nM), 92.6%; with HCC1937 [8] (10 nM) it was 100%; in the assay with MDA-MB-436 (10 nM) it was 100%; in the assay with DU-4475 (1 nM) it was 98%; in the assay with HCC1599 (10 nM) it was 86.2%.

With `COC(=O)C[C@](O)(CCCC(C)(C)O)C(=O)O[C@@H]1C(OC)=C[C@]23CCCN2CCc2cc4c(cc2[C@H]13)OCO4` [Omacetaxine], the drug sensitivity score was 23.4 with SK-BR-3 [1], 21.2 in the assay on MDA-MB-231 [2], 26.7 in the assay with BT-549 [3] and 21.2 with HCC1937 [4].

As for `C#Cc1cccc(Nc2ncnc3cc(OC)c(OCCCCCCC(=O)NO)cc23)c1` [CUDC-101], the drug sensitivity score worked out at 14.6 in the assay with SK-BR-3 [1], 13.1 in the assay with MDA-MB-231 [2], 9 in the assay with BT-549 [3] and 8.33 in the assay with HCC1937 [4]. Moreover, the normalised viability in the assay on Hs578T (100 nM) turned out to be 70.2%; with CAL-120 (100 nM), 67.1%; in the assay with MDA-MB-468 (100 nM), 66.2%; in the assay on CAL-85-1 (10 nM), 93%; with SK-BR-3 [5] (100 nM) it was 58.9%; in the assay with BT-474 (100 nM), 89.2%. For the same molecule, the normalised viability was 91.2% with MDA-MB-231 [6] (100 nM); 86.3% with HDQ-P1 (10 nM); 97.6% in the assay on BT-549 [7] (100 nM); 113% in the assay on CAL-51 (10 nM); 87.4% with MDA-MB-453 (10 nM); 79.7% with HCC1143 (100 nM). Moreover, the normalised viability in the assay on MFM-223 (100 nM) worked out at 63.3%; with CAL-148 (10 nM), 83.6%; in the assay on HCC1937 [8] (100 nM), 88.8%; in the assay on MDA-MB-436 (100 nM), 117%; in the assay with DU-4475 (10 nM), 101%; in the assay with HCC1599 (100 nM), 83.4%.

On to `Cc1cc(C(C)Nc2ccccc2)c2nc(N3CCOCC3)cc(=O)n2c1` (stereo not drawn) [TGX-221], for which the drug sensitivity score with SK-BR-3 [1] was determined as 0; in the assay with MDA-MB-231 [2], 0; with BT-549 [3] it was 2.27; in the assay with HCC1937 [4], 0.

Consider `CN(c1ccccc1CNc1nc(Nc2ccc3c(c2)CC(=O)N3)ncc1C(F)(F)F)S(C)(=O)=O`, for which the drug sensitivity score came out at 5.83 in the assay with SK-BR-3 [1], 7.82 in the assay with MDA-MB-231 [2], 5.64 in the assay with BT-549 [3] and 2.73 in the assay on HCC1937 [4].

As for `CS(=O)(=O)CCNCc1ccc(-c2ccc3ncnc(Nc4ccc(OCc5cccc(F)c5)c(Cl)c4)c3c2)o1` [Lapatinib], the drug sensitivity score with SK-BR-3 [1] is 10.8; in the assay on MDA-MB-231 [2], 0; with BT-549 [3], 0; in the assay with HCC1937 [4], 0. For the same molecule, the normalised viability with CAL-120 (100 nM) is 84.9% and 101%; in the assay on MDA-MB-468 (100 nM) it was 86.8% and 97.8%; with CAL-85-1 (10 nM), 94.6% and 101%; in the assay with SK-BR-3 [5] (100 nM), 34.6% and 32.9%; with BT-474 (100 nM), 51.4% and 56.8%; in the assay on HDQ-P1 (10 nM), 102% and 124%. The normalised viability was 85.1% and 107% in the assay on BT-549 [7] (100 nM); 116% and 104% in the assay with CAL-51 (10 nM); 95.8% and 83.7% in the assay with MDA-MB-453 (10 nM); 82.1% and 95.4% in the assay with HCC1143 (100 nM); 94% and 92.9% in the assay with MFM-223 (100 nM); 86% and 86.5% in the assay with CAL-148 (10 nM). The normalised viability in the assay on HCC1937 [8] (100 nM) is 97.1% and 106%; with MDA-MB-436 (100 nM), 95.6% and 116%; with DU-4475 (10 nM), 111% and 109%; in the assay with HCC1599 (100 nM) it was 93.9% and 94.5%.
